Experimental data published in patent US20220177511A1, “SERIES OF HALOGENATED TETRACYCLIC TRITERPENE DERIVATIVES AND THEIR PREPARATION AND APPLICATION” (SHANGHAI KING-X BIOTECH CO., LTD, priority 2019, published 2022).
Entries after “also recorded” stand apart in the source; their conditions may differ. Like-named read-outs stand apart in the source and are kept apart here.

Tests used:
[1] = Metabolic stability in human liver microsomes; assay type: in vitro ADME
Protocol: Preparation of the test sample: Compound 1 (prepared in Example 5), 2 (prepared in Example 4), and 5 (cycloastragenol, purchased from Chengdu Jintaihe Company) were dissolved with an appropriate amount of DMSO to obtain a concentration of 10 mM solution.
1) The compound was diluted with DMSO to 0.5 mM, and diluted to 1/20 with PBS before the experiment.
2) Human liver microsomes and potassium phosphate buffer were added to the EP tube respectively and mixed by gentle shaking.
3) Pre-incubate the EP tube in a metal bath at 37° C. for 5 minutes. 4) Compound 1, 2 or 5 were added and incubated at 37° C.
5) Take 100 μl of sample from the tube at 0, 60, 120, 240, and 360 minutes respectively, and add the sample to the stop tube (containing 100 μl of cooled acetonitrile solution). The mixture was shaken vigorously to terminate the reaction and then placed it in a −30° C. refrigerator until analysis.
6) Centrifuge at 14300 r/min and 4° C. for 10 minutes, aspirate the supernatant and place it in a −30° C. refrigerator until analysis.
Column: Shim-pack XR-ODS II, 2.0×75 mm; mobile phase: mobile phase B: aqueous solution containing 0.2% formic acid; mobile phase A: acetonitrile solution; mobile phase ratio: […]

[2] = Plasma pharmacokinetics after single intragastric administration in rats; assay type: in vivo, SD rat; conditions: for AUC0-t / AUC(0-inf) / CL/F / Cmax / Tmax / half-life / MRT inf / Vd/F: single gavage 10 mg/kg, Mean ± SD; for bioavailability: SD, single gavage 10 mg/kg vs intravenous 2 mg/kg; for MRT inf: read-out: MRT0-∞; for Vd/F: read-out: Vz/F
Protocol: Strain: SD rat; Gender: half male and female. Weight: about 200-250 g. Source: Shanghai Slac Laboratory Animal Co., Ltd. Laboratory Animal Production License No.: SOCK (Shanghai) 2017-0005. Laboratory Animal Use License Certificate number: SYXK (Shanghai) 2014-0018. Breeding: constant temperature purification and ventilation animal room, 20-26° C., free food and water, humidity 40-70%, light for 12 h.
Route A: single oral administration. Volume: calculated according to 10 mL/kg body weight. Preparation: an appropriate amount of compound 2 is added to a small amount of 0.5% CMC-Na and grinded, and another portion of 0.5% CMC-Na was added to form a suspension.
12 SD rats were divided into 2 groups, 6 rats in each group, […]. Fasting for 12 h before administration, free drinking water. The doses of 10 mg/kg were administered as a single gavage, and the doses of 2 mg/kg were administered as a single intravenous injection. About 100 μL orbital blood was collected before administration, 3 min, 10 min, 20 min, 30 min, 1 h, 2 h, 3 h, 4 h, 6 h, 8 h, 11 h, and 24 h after administration. For intravenous administration, orbital blood was collected before administration, 3 min, 8 min, 15 min, 30 min, 1 h, 2 h, 3 h, 4 h, 6 h, 8 h, 11 h, 24 h after injection. The blood was anticoagulated with 1% heparin, centrifuged at 8000 rpm for 4 min, and the plasma was separated. Store at −20° C. High concentration samples were diluted with blank plasma. 2.1.4 Determination method of plasma samples 2.1.4.1 Instrument (LC-MS/MS)
Liquid chromatography system: Ultimate3000 liquid chromatography system (including Ultimate3000 ternary infusion pump, Ultimate3000 column oven, Ultimate3000 autosampler and Ultimate3000 vacuum degasser), Dionex Corporation. MS/MS system: 4000 Q-Trap tandem mass spectrometer with electrospray ionization source (ESI source), AB Company
Column: Athena C18-WP 100A (2.1×50 mm, 5 μm); Injection volume: 10 μL; Mobile phase: A: acetonitrile; C: 0.05% ammonia, gradient elution (see table below); Flow rate: 0.3 mL/min
The ion source is electrospray ionization source (ESI), the drying gas (N2) temperature is 500° C., the electrospray voltage is −4500 V, the detection method is negative ion detection, the scanning method is the […] (MRM) method and the scanning time is 0.15 s. The mass spectrometry parameters are as follows:
50 μL of rat whole blood was added with 2.5 μL of internal standard working solution (250 ng/mL tolbutamide). 150 μL of acetonitrile was used to precipitate the proteins. The sample was centrifuged at 13,000 rpm and 4° C. for 5 min. The upper organic phase was taken and filtered with a 0.22 μM microporous membrane, which was then analyzed by LC-MS/MS. […]

[3] = Metabolic stability in rat liver microsomes; assay type: in vitro ADME
[4] = compared with compound 5 (cycloastragenol)
[5] = both sexes, rat, plasma, po, all rats (♂ and ♀)
[6] = female, rat, plasma, po, rats ♀

## CC(C)(O)[C@@H]1CC[C@](C)([C@H]2[C@@H](O)C[C@@]3(C)[C@@H]4C[C@H](O)[C@H]5C(C)(C)C(F)(F)CC[C@@]56C[C@@]46CC[C@]23C)O1 [Compound 2, (2aR,3R,4S,5aS,5bS,7S,7aR,11aR,12aS)-9,9-difluoro-3-((2R,5S)-5-(2-hydroxypropan-2-yl)-2-methyltetrahydrofuran-2-yl)-2a,5a,8,8-tetramethyltetradecahydro-1H,12H-cyclopenta[a]cyclopropa[e]phenanthrene-4,7-diol]
[1]; [4]
  metabolic stability in human liver microsomes: relatively stable; also recorded: more stable than cycloastragenol
[1]; human, liver microsomes, 5 μM compound, 1 mg/mL microsomes, 37° C.
  half-life at 5 µM: 7.3 h
other
  melting point: 189 to 192 °C
[2]; all rats (♂ and ♀), 10 mg/kg
  AUC0-t: 1916 ng·h/mL
[2]; both sexes, rat, plasma, po, all rats (♂ and ♀), read-out: F (mean absolute bioavailability)
  bioavailability: 22%
[2]; [5]
  AUC(0-inf): 2450 ± 3070 ng·h/mL
  CL/F: 140 mL/min/kg
  Cmax: 323 ng/mL
  Tmax: 2.17 h
  half-life: 2.89 h
  MRT inf: 4.4 ± 1.28 h
  Vd/F: 27.9 ± 19 L/kg
[2]; both sexes, rat, plasma, po, all rats (♂ and ♀), read-out: AUC0-t
  AUC0-t: 1920 ng·h/mL
[2]; female, rat, plasma, po, rats ♀, read-out: F (absolute bioavailability)
  bioavailability: 28.4%
[2]; [6]
  AUC(0-inf): 4040 ± 3990 ng·h/mL
  CL/F: 71.2 mL/min/kg
  Cmax: 459 ± 277 ng/mL
  Tmax: 2.33 ± 0.58 h
  half-life: 3.64 ± 2.54 h
  MRT inf: 5.01 ± 1.71 h
  Vd/F: 15.8 ± 9.24 L/kg
[2]; female, rat, plasma, po, rats ♀, read-out: AUC0-t
  AUC0-t: 3000 ± 2430 ng·h/mL
[2]; male, rat, plasma, po, rats ♂, read-out: F (absolute bioavailability)
  bioavailability: 15.6%
[2]; male, rat, plasma, po, rats ♂
  AUC(0-inf): 859 ± 297 ng·h/mL
  CL/F: 208 mL/min/kg
  Cmax: 187 ± 37 ng/mL
  Tmax: 2 ± 1 h
  half-life: 2.14 ± 0.64 h
  MRT inf: 3.78 ± 0.24 h
  Vd/F: 40 ± 19.5 L/kg
[2]; male, rat, plasma, po, rats ♂, read-out: AUC0-t
  AUC0-t: 831 ng·h/mL
[3]; [4]
  metabolic stability in rat liver microsomes: relatively stable; also recorded: more stable than cycloastragenol
[3]; liver microsomes, 5 μM compound, 37° C.
  half-life at 5 µM: 8.63 h
